From patent publication US10681909B2, “Herbicidal triazoles” (FMC Corporation, priority 2014, dated 2020)

Legend:
foxtail, giant = assay: Test C postemergence; format: in vivo, Setaria faberii
Procedure, shortened: (§1)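 Test chemicals in a non-phytotoxic solvent mixture with surfactant were applied to pots of plants at 2 to 18 cm (1- to 4-leaf stage) for postemergence treatment, grown in a peat-based medium with vermiculite, starter nutrients and dolomitic limestone. Preemergence treatment was to seeds freshly planted in loam soil mixed with sand.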

morningglory = assay: Test C postemergence; format: in vivo, Ipomoea coccinea
Procedure, shortened: as §1

corn = assay: Test A postemergence; format: in vivo, Zea mays; conditions: 0 to 100 scale (0 no effect, 100 complete control), approx. 10 d
Procedure, shortened: (§2)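 Loam/sand soil mix; compound in non-phytotoxic solvent + surfactant. Pre: directed soil spray right after planting seed. Post: potted plants 2–10 cm, 1–2 leaf stage, sprayed with same formulation.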

sedge, umbrella = assay: Test B flooded paddy test; format: in vivo, Cyperus difformis; conditions: 250 g ai/ha, applied to paddy water at 2-leaf stage, visual rating after 13 to 15 d, scale 0 (no effect) to 100 (complete control)
Procedure, shortened: (§3)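 Pots were flooded to 3 cm above the soil at treatment, and compounds were applied directly into the paddy water. That depth was held throughout. After 13 to 15 d in a greenhouse, plants were rated visually against untreated controls.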

ryegrass, Italian = assay: Test C postemergence; format: in vivo, Lolium multiflorum
Procedure, shortened: as §1

wheat (winter wheat) = assay: Test C postemergence; format: in vivo, Triticum aestivum
Procedure, shortened: as §1

rice = assay: Test B flooded paddy test; format: in vivo, Oryza sativa; conditions: 250 g ai/ha, applied to paddy water at 2-leaf stage, visual rating after 13 to 15 d, scale 0 (no effect) to 100 (complete control)
Procedure, shortened: as §3

barnyardgrass [1] = assay: Test B flooded paddy test; format: in vivo, Echinochloa crus-galli; conditions: 250 g ai/ha, applied to paddy water at 2-leaf stage, visual rating after 13 to 15 d, scale 0 (no effect) to 100 (complete control)
Procedure, shortened: as §3

oilseed rape = assay: Test C postemergence; format: in vivo, Brassica napus
Procedure, shortened: as §1

wheat = assay: Test A postemergence; format: in vivo, Triticum aestivum; conditions: 0 to 100 scale (0 no effect, 100 complete control), approx. 10 d
Procedure, shortened: as §2

barnyardgrass [2] = assay: Test A preemergence; format: in vivo, Echinochloa crus-galli; conditions: 0 to 100 scale (0 no effect, 100 complete control)
Procedure, shortened: as §2

waterhemp = assay: Test C postemergence; format: in vivo, Amaranthus rudis
Procedure, shortened: as §1

pigweed = assay: Test C postemergence; format: in vivo, Amaranthus retroflexus
Procedure, shortened: as §1

oat, wild = assay: Test C postemergence; format: in vivo, Avena fatua
Procedure, shortened: as §1

kochia = assay: Test C postemergence; format: in vivo, Kochia scoparia
Procedure, shortened: as §1

nutsedge, yellow = assay: Test C postemergence; format: in vivo, Cyperus esculentus
Procedure, shortened: as §1

blackgrass = assay: Test C postemergence; format: in vivo, Alopecurus myosuroides
Procedure, shortened: as §1

barnyardgrass [3] = assay: Test A postemergence; format: in vivo, Echinochloa crus-galli; conditions: 0 to 100 scale (0 no effect, 100 complete control), approx. 10 d
Procedure, shortened: as §2

lambsquarters = assay: Test C postemergence; format: in vivo, Chenopodium album
Procedure, shortened: as §1

chickweed = assay: Test C postemergence; format: in vivo, Stellaria media
Procedure, shortened: as §1

Fc1ccc(-c2nc(OCC(F)(F)F)n(Cc3ccnc(C(F)(F)F)c3)n2)cc1 [Compound 30]
20: Plant response rating (scale of 0 to 100 where 0 is no effect and 100 is complete control) (ryegrass, Italian; 31 g ai/ha) | Plant response rating (scale of 0 to 100 where 0 is no effect and 100 is complete control) (wheat (winter wheat); 250 g ai/ha)
5: Plant response rating (scale of 0 to 100 where 0 is no effect and 100 is complete control) (foxtail, giant; 31 g ai/ha) | Plant response rating (scale of 0 to 100 where 0 is no effect and 100 is complete control) (wheat (winter wheat); 31 g ai/ha) | Plant response rating (scale of 0 to 100 where 0 is no effect and 100 is complete control) (wheat (winter wheat); 62 g ai/ha) | Plant response rating (scale of 0 to 100 where 0 is no effect and 100 is complete control) (nutsedge, yellow; 31 g ai/ha) | Plant response rating (scale of 0 to 100 where 0 is no effect and 100 is complete control) (nutsedge, yellow; 62 g ai/ha)
35: Plant response rating (scale of 0 to 100 where 0 is no effect and 100 is complete control) (oilseed rape; Oilseed Rape, 31 g ai/ha)
45: Plant response rating (scale of 0 to 100 where 0 is no effect and 100 is complete control) (oat, wild; 250 g ai/ha)
40: Plant response rating, Corn (corn; 125 g ai/ha) | Plant response rating (scale of 0 to 100 where 0 is no effect and 100 is complete control) (blackgrass; 125 g ai/ha)
25: Plant response rating (scale of 0 to 100 where 0 is no effect and 100 is complete control) (foxtail, giant; 125 g ai/ha) | Plant response rating (scale of 0 to 100 where 0 is no effect and 100 is complete control) (foxtail, giant; 250 g ai/ha) | Plant response rating (scale of 0 to 100 where 0 is no effect and 100 is complete control) (ryegrass, Italian; 62 g ai/ha) | Plant response rating (scale of 0 to 100 where 0 is no effect and 100 is complete control) (oat, wild; 31 g ai/ha) | Plant response rating (scale of 0 to 100 where 0 is no effect and 100 is complete control) (blackgrass; 31 g ai/ha)
90: Plant response rating, Sedge, Umbrella, Flood (sedge, umbrella) | Plant response rating, Barnyardgrass (barnyardgrass [2]; 125 g ai/ha) | Plant response rating, Barnyardgrass (barnyardgrass [3]; 500 g ai/ha)
70: Plant response rating (scale of 0 to 100 where 0 is no effect and 100 is complete control) (morningglory; 62 g ai/ha) | Plant response rating (scale of 0 to 100 where 0 is no effect and 100 is complete control) (lambsquarters; 31 g ai/ha)
10: Plant response rating (scale of 0 to 100 where 0 is no effect and 100 is complete control) (foxtail, giant; 62 g ai/ha) | Plant response rating, Wheat (wheat; 125 g ai/ha) | Plant response rating (scale of 0 to 100 where 0 is no effect and 100 is complete control) (nutsedge, yellow; 125 g ai/ha)
100: Plant response rating (scale of 0 to 100 where 0 is no effect and 100 is complete control) (morningglory; 250 g ai/ha) | Plant response rating, Barnyardgrass (barnyardgrass [2]; 500 g ai/ha, approx. 10 d) | Plant response rating (scale of 0 to 100 where 0 is no effect and 100 is complete control) (kochia; 31 g ai/ha) | Plant response rating (scale of 0 to 100 where 0 is no effect and 100 is complete control) (kochia; 62 g ai/ha) | Plant response rating (scale of 0 to 100 where 0 is no effect and 100 is complete control) (kochia; 125 g ai/ha) | Plant response rating (scale of 0 to 100 where 0 is no effect and 100 is complete control) (kochia; 250 g ai/ha) | Plant response rating (scale of 0 to 100 where 0 is no effect and 100 is complete control) (chickweed; 125 g ai/ha) | Plant response rating (scale of 0 to 100 where 0 is no effect and 100 is complete control) (chickweed; 250 g ai/ha)
50: Plant response rating, Corn (corn; 500 g ai/ha) | Plant response rating (scale of 0 to 100 where 0 is no effect and 100 is complete control) (ryegrass, Italian; 250 g ai/ha)
15: Plant response rating (scale of 0 to 100 where 0 is no effect and 100 is complete control) (wheat (winter wheat); 125 g ai/ha) | Plant response rating (scale of 0 to 100 where 0 is no effect and 100 is complete control) (oat, wild; 62 g ai/ha) | Plant response rating (scale of 0 to 100 where 0 is no effect and 100 is complete control) (nutsedge, yellow; 250 g ai/ha)
80: Plant response rating (scale of 0 to 100 where 0 is no effect and 100 is complete control) (morningglory; 31 g ai/ha) | Plant response rating (scale of 0 to 100 where 0 is no effect and 100 is complete control) (morningglory; 125 g ai/ha) | Plant response rating (scale of 0 to 100 where 0 is no effect and 100 is complete control) (oilseed rape; Oilseed Rape, 62 g ai/ha) | Plant response rating, Barnyardgrass (barnyardgrass [3]; 125 g ai/ha)
95: Plant response rating (scale of 0 to 100 where 0 is no effect and 100 is complete control) (oilseed rape; Oilsee Rape, 250 g ai/ha) | Plant response rating (scale of 0 to 100 where 0 is no effect and 100 is complete control) (oilseed rape; Oilseed Rape, 125 g ai/ha) | Plant response rating (scale of 0 to 100 where 0 is no effect and 100 is complete control) (waterhemp; 31 g ai/ha) | Plant response rating (scale of 0 to 100 where 0 is no effect and 100 is complete control) (waterhemp; 125 g ai/ha) | Plant response rating (scale of 0 to 100 where 0 is no effect and 100 is complete control) (pigweed; 31 g ai/ha) | Plant response rating (scale of 0 to 100 where 0 is no effect and 100 is complete control) (pigweed; 62 g ai/ha) | Plant response rating (scale of 0 to 100 where 0 is no effect and 100 is complete control) (lambsquarters; 125 g ai/ha) | Plant response rating (scale of 0 to 100 where 0 is no effect and 100 is complete control) (lambsquarters; 250 g ai/ha) | Plant response rating (scale of 0 to 100 where 0 is no effect and 100 is complete control) (chickweed; 31 g ai/ha) | Plant response rating (scale of 0 to 100 where 0 is no effect and 100 is complete control) (chickweed; 62 g ai/ha)
98: Plant response rating (scale of 0 to 100 where 0 is no effect and 100 is complete control) (waterhemp; 62 g ai/ha) | Plant response rating (scale of 0 to 100 where 0 is no effect and 100 is complete control) (waterhemp; 250 g ai/ha) | Plant response rating (scale of 0 to 100 where 0 is no effect and 100 is complete control) (pigweed; 125 g ai/ha) | Plant response rating (scale of 0 to 100 where 0 is no effect and 100 is complete control) (pigweed; 250 g ai/ha)
60: Plant response rating (scale of 0 to 100 where 0 is no effect and 100 is complete control) (blackgrass; 250 g ai/ha)
85: Plant response rating (scale of 0 to 100 where 0 is no effect and 100 is complete control) (lambsquarters; 62 g ai/ha)
30: Plant response rating (scale of 0 to 100 where 0 is no effect and 100 is complete control) (ryegrass, Italian; 125 g ai/ha) | Plant response rating, Rice, Flood (rice) | Plant response rating, Barnyardgrass, Flood (barnyardgrass [1]) | Plant response rating, Wheat (wheat; 500 g ai/ha) | Plant response rating (scale of 0 to 100 where 0 is no effect and 100 is complete control) (oat, wild; 125 g ai/ha) | Plant response rating (scale of 0 to 100 where 0 is no effect and 100 is complete control) (blackgrass; 62 g ai/ha)
